Experimental data as given in patent US11548892B1, “Transglutaminase 2 (TG2) inhibitors” (Sitari Pharma, Inc., priority 2018, dated 2023).
pIC50: −log10 of the molar value.

Target: TG2 (Homo sapiens (Human), UniProt P21980)
Test: Transglutaminase (TG) Inhibitor Assay
Format: biochemical
Settings: fluorescence of dansyl cadaverine cross-linked into N,N-dimethylated casein; 8 point titration
Description: Using the fluorescent amine donor, dansyl cadaverine (DSC), and the multiple glutamine bearing amine acceptor N,N-dimethylated casein (NMC), TG activity was measured via the change in fluorescence of cross-linked DSC into NMC over time.

TG2, sequence (P21980 whole entry): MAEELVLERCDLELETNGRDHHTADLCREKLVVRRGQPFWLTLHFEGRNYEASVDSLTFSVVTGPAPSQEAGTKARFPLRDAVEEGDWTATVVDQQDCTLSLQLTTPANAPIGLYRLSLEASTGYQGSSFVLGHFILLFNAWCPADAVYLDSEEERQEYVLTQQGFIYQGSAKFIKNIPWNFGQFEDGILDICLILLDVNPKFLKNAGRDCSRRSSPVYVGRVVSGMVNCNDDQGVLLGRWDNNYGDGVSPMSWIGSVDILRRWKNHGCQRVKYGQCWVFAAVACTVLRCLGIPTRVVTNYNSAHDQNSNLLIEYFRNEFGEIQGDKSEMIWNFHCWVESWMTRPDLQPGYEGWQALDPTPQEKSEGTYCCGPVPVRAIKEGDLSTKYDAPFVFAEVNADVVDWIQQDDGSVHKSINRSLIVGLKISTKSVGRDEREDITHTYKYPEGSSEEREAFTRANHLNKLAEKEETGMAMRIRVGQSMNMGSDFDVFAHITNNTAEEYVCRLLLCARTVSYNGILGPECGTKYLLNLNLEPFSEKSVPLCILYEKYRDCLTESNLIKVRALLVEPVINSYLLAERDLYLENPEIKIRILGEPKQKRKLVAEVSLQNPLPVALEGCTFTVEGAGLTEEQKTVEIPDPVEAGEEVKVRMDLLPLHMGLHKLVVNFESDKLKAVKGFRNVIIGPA

Row | SMILES | pIC50
1 | CC(C)Cc1cccc2c1nc(Cn1cccc(NC(=O)[C@H](CC/C=C/C(N)=O)NC(=O)OCc3ccccc3)c1=O)n2C(=O)OC(C)(C)C [Compound 3] | > 6.30
2 | CN(C)C(=O)/C=C/CC[C@H](OC(=O)N(C)C)C(=O)Nc1ccnn(Cc2nc3cc(F)cc(CC(C)(C)C)c3[nH]2)c1=O [Compound 85, [(E,1S)-6-(dimethylamino)-1-[[2-[[7-(2,2-dimethylpropyl)-5-fluoro-1H-benzimidazol-2-yl]methyl]-3-oxo-pyridazin-4-yl]carbamoyl]-6-oxo-hex-4-enyl]N,N-dimethylcarbamate] | > 6.30
3 | COC(=O)N[C@@H](CC/C=C/C(=O)N(C)C)C(=O)Nc1cncn(Cc2nc3c(CCC(F)(F)F)cc(F)cc3n2C(=O)OC(C)(C)C)c1=O [Compound 102, tert-butyl 2-[[5-[[(E,2S)-7-(dimethylamino)-2-(methoxycarbonylamino)-7-oxo-hept-5-enoyl]amino]-6-oxo-pyrimidin-1-yl]methyl]-6-fluoro-4-(3,3,3-trifluoropropyl)benzimidazole-1-carboxylate] | > 6.30
4 | COC(=O)N[C@@H](CC/C=C/C(=O)N(C)C)C(=O)Nc1cncn(Cc2nc3cc(F)cc(CCC(F)(F)F)c3[nH]2)c1=O [Compound 103, methyl N-[(E,1S)-6-(dimethylamino)-1-[[1-[[5-fluoro-7-(3,3,3-trifluoropropyl)-1H-benzimidazol-2-yl]methyl]-6-oxo-pyrimidin-5-yl]carbamoyl]-6-oxo-hex-4-enyl]carbamate] | > 6.30
5 | COC(=O)N[C@@H](CC/C=C/C(=O)N(C)C)C(=O)Nc1cccn(Cc2nc3c(CC(C(F)(F)F)C(F)(F)F)cccc3n2C(=O)OC(C)(C)C)c1=O [Compound 148, (S,E)-tert-butyl 2-((3-(7-(dimethylamino)-2-((methoxycarbonyl)amino)-7-oxohept-5-enamido)-2-oxopyridin-1(2H)-yl)methyl)-4-(3,3,3-trifluoro-2-(trifluoromethyl)propyl)-1H-benzo[d]imidazole-1-carboxylate] | 5.30 to 6.30
6 | CN(C)C(=O)/C=C/CC[C@H](NC(=O)OC(C)(C)C)C(=O)Nc1cccn(Cc2nc3cccc(C(O)C(C)(C)C)c3[nH]2)c1=O (stereo partly drawn) [Compound 160, tert-butyl ((2S,E)-7-(dimethylamino)-1-((1-((7-(1-hydroxy-2,2-dimethylpropyl)-1H-benzo[d]imidazol-2-yl)methyl)-2-oxo-1,2-dihydropyridin-3-yl)amino)-1,7-dioxohept-5-en-2-yl)carbamate] | > 6.30
7 | COC(=O)N[C@@H](CC/C=C/C(=O)N(C)C)C(=O)Nc1cncn(Cc2nc3cc(F)ccc3n2C)c1=O [Compound 174, methyl N-[(E,1S)-6-(dimethylamino)-1-[[1-[(5-fluoro-1-methyl-benzimidazol-2-yl)methyl]-6-oxo-pyrimidin-5-yl]carbamoyl]-6-oxo-hex-4-enyl]carbamate] | 4.00 to 5.30
8 | CC(C)Cn1c(Cn2ccnc(NC(=O)[C@H](CC/C=C/C(=O)N(C)C)OC(=O)N(C)C)c2=O)cc2cc(F)ccc21 [Compound 344, [(E,1S)-6-(dimethylamino)-1-[[4-[(5-fluoro-1-isobutyl-indol-2-yl)methyl]-3-oxo-pyrazin-2-yl]carbamoyl]-6-oxo-hex-4-enyl]N,Ndimethylcarbamate] | > 6.30
9 | COC(=O)N[C@@H](CC/C=C/C(=O)N(C)C)C(=O)Nc1cccn(Cc2cc3ncnc(CC(C)C)c3[nH]2)c1=O [Compound 459, methyl N-[(E,1S)-6-(dimethylamino)-1-[[1-[(4-isobutyl-5H-pyrrolo[3,2-d]pyrimidin-6-yl)methyl]-2-oxo-3-pyridyl]carbamoyl]-6-oxo-hex-4-enyl]carbamate] | > 6.30
10 | COC(=O)N[C@@H](CC/C=C/C(=O)N(C)C)C(=O)Nc1cccn(Cc2cc3c(F)cnc(C=C(C)C)c3[nH]2)c1=O [Compound 501] | > 6.30
11 | COC(=O)N[C@@H](CC/C=C/C(=O)N(C)C)C(=O)Nc1cccn(Cc2nc3c(N(C)C)nc(C)nc3[nH]2)c1=O [Compound 504] | 5.30 to 6.30
12 | COC(=O)N[C@@H](CC/C=C/C(=O)N(C)C)C(=O)Nc1cccn(Cc2nc3c(CC(C)C)c(F)cnc3[nH]2)c1=O [Compound 525] | > 6.30
13 | COC(=O)N[C@@H](CC/C=C/C(=O)N(C)C)C(=O)Nc1cc(F)c(C)n(Cc2nc3c(F)cnc(CC(C)C)c3[nH]2)c1=O [Compound 583] | > 6.30
14 | COC(=O)N[C@@H](CC/C=C/C(=O)N(C)C)C(=O)Nc1cccn(Cc2cc3ncc(F)c(CC4CCC4)c3[nH]2)c1=O [Compound 585] | > 6.30
15 | COCc1ccc(NC(=O)[C@H](CC/C=C/C(=O)N(C)C)NC(=O)OC)c(=O)n1Cc1nc2c(F)cnc(CC(C)C)c2[nH]1 [Compound 599] | > 6.30

Other lines, results leading:

Row | pIC50 | SMILES
16 | 5.30 to 6.30 | [2H]C([2H])(C/C=C/C(=O)N(C)C)C(OC(=O)N(C)C)C(=O)Nc1cccn(Cc2nc3cc(F)ccc3[nH]2)c1=O (stereo not drawn) [Compound 54]
17 | 5.30 to 6.30 | [2H]C([2H])(C/C=C/C(=O)N(C)C)C(OC(=O)N(C)C)C(=O)Nc1cccn(Cc2nc3cc(F)ccc3[nH]2)c1=O (stereo not drawn) [Compound 55]
18 | > 6.30 | COC(=O)N(C)[C@@H](CC/C=C/C(=O)N(C)C)C(=O)Nc1cccn(Cc2nc3cccc(OCc4ccc(F)cc4F)c3[nH]2)c1=O [Compound 115, methyl (S,E)-methyl(1-((1-((7-((2,4-difluorobenzyl)oxy)-1H-benzo[d]imidazol-2-yl)methyl)-2-oxo-1,2-dihydropyridin-3-yl)amino)-7-(dimethylamino)-1,7-dioxohept-5-en-2-yl)carbamate]
19 | 5.30 to 6.30 | CN(C)C(=O)/C=C/CC[C@H](OC(=O)N(C)C)C(=O)Nc1cccn(Cc2nc3ccc(F)cc3n2Cc2ccccc2)c1=O [Compound 202, [(E,1S)-1-[[1-[(1-benzyl-6-fluoro-benzimidazol-2-yl)methyl]-2-oxo-3-pyridyl]carbamoyl]-6-(dimethylamino)-6-oxo-hex-4-enyl]N,N-dimethylcarbamate]
20 | 5.30 to 6.30 | CN(C)C(=O)/C=C/CC[C@H](OC(=O)N(C)C)C(=O)Nc1cccn(Cc2nc3cc(F)ccc3n2Cc2ccc(F)cc2)c1=O [Compound 207]
21 | 5.30 to 6.30 | CN(C)C(=O)/C=C/CC[C@H](OC(=O)N(C)C)C(=O)Nc1cccn(Cc2nc3ccc(F)cc3n2Cc2ccc(F)cc2)c1=O [Compound 208]
22 | > 6.30 | [2H]C([2H])(C/C=C/C(=O)N(C)C)C(OC(=O)N(C)C)C(=O)Nc1cccn(Cc2cc3cc(F)ccc3n2C(=O)OC(C)(C)C)c1=O (stereo not drawn) [Compound 224]
23 | 5.30 to 6.30 | [2H]C([2H])(C/C=C/C(=O)N(C)C)C(OC(=O)N(C)C)C(=O)Nc1cccn(Cc2cc3cccc(CC(C)C)c3n2C(=O)OC(C)(C)C)c1=O (stereo not drawn) [Compound 247]
24 | 4.00 to 5.30 | [2H]C([2H])(C/C=C/C(=O)N(C)C)C(OC(=O)N(C)C)C(=O)Nc1cccn(Cc2cc3cc(F)cc(OCc4ccc(F)cc4F)c3n2C(=O)OC(C)(C)C)c1=O (stereo not drawn) [Compound 303]
25 | 5.30 to 6.30 | [2H]C([2H])(C/C=C/C(=O)N(C)C)C(OC(=O)N(C)C)C(=O)Nc1cccn(Cc2cc3cc(F)cc(CC(C)C)c3n2C(=O)OC(C)(C)C)c1=O (stereo not drawn) [Compound 307]
26 | > 6.30 | [2H]C([2H])(C/C=C/C(=O)N(C)C)C(OC(=O)N(C)C)C(=O)Nc1cccn(Cc2cc3cc(F)cc(CC(C)C)c3[nH]2)c1=O (stereo not drawn) [Compound 308]

Same assay, conditions: fluorescence of dansyl cadaverine cross-linked into N,N-dimethylated casein; 8 point titration; listed as 101

Row | SMILES | pIC50
27 | COCc1ccc(NC(=O)[C@H](CC/C=C/C(=O)N(C)C)NC(=O)OC)c(=O)n1Cc1nc2c(F)cnc(CC(C)C)c2[nH]1 [Compound 599] | 5.30 to 6.30
